Results published in PMC8426359, “Use of a small molecule integrin activator as a systemically administered vaccine adjuvant in controlling Chagas disease” (NPJ Vaccines, 2021).

Biological target: T1, integrin α4β1 (very late activation antigen-4, VLA-4) (Homo sapiens, UniProt P05556+P13612)
T1 construct: gene ITGA4; endogenous integrin on Jurkat cells; with integrin β1 (ITGB1)
Experiment: static adhesion of Jurkat cells to VCAM-1; blocked by anti-α[…] or anti-β[…] mAb
Assay type: cell-based

T1 sequence (P13612 34-1032): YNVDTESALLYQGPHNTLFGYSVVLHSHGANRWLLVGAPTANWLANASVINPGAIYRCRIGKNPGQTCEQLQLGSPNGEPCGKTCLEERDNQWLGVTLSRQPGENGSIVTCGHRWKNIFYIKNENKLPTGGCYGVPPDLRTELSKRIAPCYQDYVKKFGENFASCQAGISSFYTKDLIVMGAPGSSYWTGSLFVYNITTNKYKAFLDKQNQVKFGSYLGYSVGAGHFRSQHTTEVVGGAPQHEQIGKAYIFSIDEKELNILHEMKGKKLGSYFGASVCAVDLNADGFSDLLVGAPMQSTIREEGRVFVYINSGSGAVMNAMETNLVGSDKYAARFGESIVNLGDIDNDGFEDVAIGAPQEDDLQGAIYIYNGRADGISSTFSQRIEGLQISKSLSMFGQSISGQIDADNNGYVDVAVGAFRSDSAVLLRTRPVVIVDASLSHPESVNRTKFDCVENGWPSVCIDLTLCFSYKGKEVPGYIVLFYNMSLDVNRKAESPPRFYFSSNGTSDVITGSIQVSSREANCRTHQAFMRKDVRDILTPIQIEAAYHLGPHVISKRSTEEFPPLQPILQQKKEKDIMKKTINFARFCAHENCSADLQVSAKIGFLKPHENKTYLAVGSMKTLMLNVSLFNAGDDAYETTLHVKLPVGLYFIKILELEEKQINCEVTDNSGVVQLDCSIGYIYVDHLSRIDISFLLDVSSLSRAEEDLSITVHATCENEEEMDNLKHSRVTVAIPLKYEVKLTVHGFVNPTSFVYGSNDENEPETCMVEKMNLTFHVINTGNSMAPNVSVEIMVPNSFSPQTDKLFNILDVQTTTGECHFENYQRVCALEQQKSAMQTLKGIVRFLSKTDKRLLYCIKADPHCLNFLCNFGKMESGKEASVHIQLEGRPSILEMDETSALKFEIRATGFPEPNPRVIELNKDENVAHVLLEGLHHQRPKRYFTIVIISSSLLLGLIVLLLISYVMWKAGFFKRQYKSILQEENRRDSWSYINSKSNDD
T1 sequence (P05556 21-798): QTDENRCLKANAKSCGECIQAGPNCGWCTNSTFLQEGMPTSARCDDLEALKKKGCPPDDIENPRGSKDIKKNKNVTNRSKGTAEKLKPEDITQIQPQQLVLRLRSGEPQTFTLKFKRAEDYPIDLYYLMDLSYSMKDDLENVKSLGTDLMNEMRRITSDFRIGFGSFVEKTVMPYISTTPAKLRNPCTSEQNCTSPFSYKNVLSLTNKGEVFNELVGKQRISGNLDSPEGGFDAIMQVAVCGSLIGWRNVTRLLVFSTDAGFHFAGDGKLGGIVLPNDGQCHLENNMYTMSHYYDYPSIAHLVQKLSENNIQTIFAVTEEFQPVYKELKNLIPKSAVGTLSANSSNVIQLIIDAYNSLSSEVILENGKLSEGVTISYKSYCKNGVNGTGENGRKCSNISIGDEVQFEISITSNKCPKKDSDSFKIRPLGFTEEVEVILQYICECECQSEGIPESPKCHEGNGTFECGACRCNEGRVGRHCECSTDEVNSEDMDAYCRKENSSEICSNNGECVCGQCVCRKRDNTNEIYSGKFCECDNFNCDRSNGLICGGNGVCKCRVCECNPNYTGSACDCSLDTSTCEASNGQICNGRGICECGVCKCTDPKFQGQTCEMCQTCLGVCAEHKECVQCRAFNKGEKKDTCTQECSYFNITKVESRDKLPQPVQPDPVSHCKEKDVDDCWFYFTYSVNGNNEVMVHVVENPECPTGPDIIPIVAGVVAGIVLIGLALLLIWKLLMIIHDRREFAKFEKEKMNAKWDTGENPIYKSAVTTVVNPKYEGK

O=C(OCCOCCOCCOC(=O)N(Cc1cccs1)Cc1cccs1)N(Cc1cccs1)Cc1cccs1 [7HP349]
EC50: 2 µM
